Experimental findings from PubChem BioAssay AID504740 (National Center for Advancing Translational Sciences (NCATS), 2011) are described below.

The subject of this series is mouse plasma stability, LC-MS/MS, 48 h. In words: Inhibitors of Bloom's syndrome helicase: Mouse Plasma Stability Profiling. The note with it: at 2 µM; active compounds read high. The source says: Survival of cells and the faithful propagation of the genome depend on elaborate mechanisms of detecting and repairing DNA damage. Treatment of advanced cancer relies on radiation therapy or chemotherapy, which kill cancer cells by causing extensive DNA damage. It is often found, that cancer cells develop resistance to therapy through enhanced activity of DNA repair functions; this has led to an increased interest in developing drugs that interfere with DNA repair, which could sensitize cancer cells to conventional therapy. Bloom syndrome helicase (BLM), is important in resolving abnormal DNA structures formed during replication or homologous recombination. Shutting down the expression of BLM leads to chromosomal instability and higher radiation sensitivity in cultured cells. After the completion of a qHTS campaign, secondary assays, and rounds of medicinal chemistry, a compound was identified to be further characterized through in vitro ADME assays. The stability of the lead compound in mouse plasma is tested because this parameter has a significant impact on many ADME-concerned properties of drugs, such as uptake, distribution, transport, and bioavailability. […]
2uM of compound is incubated in mouse plasma; the reference compound is procaine. Compounds are incubated at 37 deg C for the pre-determined time periods and the when aliquots are removed. Samples are analyzed with LC-MS/MS.

`O=C(Nc1ccc(F)c(C(F)(F)F)c1)Nc1nnc(-c2ccncc2)s1`: the percent remaining is 100%.
